In publication PMC4406947, “CALM Regulates Clathrin-Coated Vesicle Size and Maturation by Directly Sensing and Driving Membrane Curvature” (Developmental Cell, 2015):

Experiments:
CALM ANTH (CALM ANTH-WT) = target: T1, CALM ANTH (CALM ANTH-WT); experiment: liposome-based SPR (BIAcore […]); format: binding, Homo sapiens; details: PtdIns4,5P2-containing liposomes, not free lipid; 170 mM salt
T1 construct: gene PICALM; recombinant N-terminal ANTH domain including AH0, first 289 residues; construct details in supplement; clone could be rat Picalm (earlier ANTH constructs of this group)

CALM ANTH(ΔH0) = target: T2, CALM ANTH(ΔH0) (Homo sapiens, UniProt Q13492); experiment: liposome-based SPR (BIAcore […]); format: binding; details: PtdIns4,5P2-containing liposomes, not free lipid; 170 mM salt
T2 construct: gene PICALM; recombinant ANTH domain lacking the N-terminal amphipathic helix AH0 (residues 1-18); construct details in supplement; clone could be rat Picalm
T2 sequence (Q13492 19-289): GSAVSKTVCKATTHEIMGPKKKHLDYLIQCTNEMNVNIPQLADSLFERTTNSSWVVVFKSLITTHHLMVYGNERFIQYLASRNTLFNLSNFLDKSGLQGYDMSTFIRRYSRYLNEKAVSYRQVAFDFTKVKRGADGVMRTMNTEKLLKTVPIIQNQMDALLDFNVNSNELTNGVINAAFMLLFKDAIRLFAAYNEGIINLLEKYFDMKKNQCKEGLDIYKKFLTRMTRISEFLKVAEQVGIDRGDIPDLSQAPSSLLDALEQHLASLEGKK

PtdIns4,5P2
Kd (CALM ANTH (CALM ANTH-WT)): 1.5 µM
Kd (CALM ANTH(ΔH0)): 11.5 ± 1.1 µM
